Data published in US20220354811A1, “METHODS AND COMPOSITIONS FOR MODULATING MACROPHAGES POLARIZATION” (INSERM (INSTITUT NATIONAL DE LA SANTÉ ET DE LA RECHERCHE …, priority 2019, published 2022).

What was measured:
human primary monocytes = assay: CSF-1-induced monocyte differentiation into macrophages (flow cytometry, CD71/CD163 and CD16/CD163 double positive cells); format: cell-based
Source text: FIG. 1. […] (A) Macrophagic differentiation of monocytes from 3 different healthy donors was examined by 3-color flow cytometric analysis. The results are expressed as percentage of CD71/CD163 or CD16/CD163 double positive cells and represent the mean±SD of 3 independent experiments performed in duplicate. (B) Cell death from 3 different healthy donors was examined by flow cytometry analysis. The results are expressed as percentage of AnnexinV/DAPI double positive cells and represent the mean±SD of 3 independent experiments performed in duplicate. n.s. denotes not statistically significant according to a paired student t test. *P<0.05, **P<0.01, ***P<0.001 according to a paired student t test (versus d2).
FIG. 2. […] Macrophagic differentiation of monocytes from 3 different healthy donors was examined by 3-color flow cytometric analysis. The results are expressed as percentage of CD71/CD163 or CD16/CD163 double positive cells and represent the mean±SD of 3 independent experiments performed in duplicate. n.s. denotes not statistically significant according to a paired student t test. *P<0.05, **P<0.01, ***P<0.001 according to a paired student t test (versus d2).
Human peripheral […] were obtained from healthy donors with informed consent following the Declaration of Helsinki according to recommendations of an independent scientific review board. The project has been validated by The Etablissement Francais du Sang, the French national agency for blood collection (protocol N°ALM/PLER/FO/001). Blood samples were collected using ethylene diamine tetraacetic acid-containing tubes. Mononucleated cells were first isolated using Ficoll Hypaque (Eurobio, CMSMSL0101). Then, we used the autoMACS® Pro Separator (Miltenyi, France) to perform cell enrichment. An initial positive selection, which included antibody targeting CD14, was used for monocyte enrichment (Miltenyi, 130-050-201). Purified monocytes from human were grown in RPMI 1640 medium with glutamax-I (Life Technologies, 61870044) supplemented with 10% (vol/vol) foetal bovine serum (Life Technologies). Macrophage differentiation was induced by adding into the culture medium 100 ng/mL CSF-1 and was visualized using standard optics (20x/0.35 Ph1) equipped with an AxioCam ERc camera (Zeiss, France). Phase images of the cultures were recorded with the Zen 2 software (Zeiss).
To analyze the macrophagic differentiation of monocytes, the cells were washed with ice-cold phosphate buffered saline (PBS, Life Technologies, 14190169), incubated at 4° C. for 10 min in PBS/bovine serum albumin (BSA 0.5%, Dutscher, 871002) with anti-CD16, anti-CD71 and anti-CD163 or isotype controls (Miltenyi and BD Biosciences, catalog numbers were 130-113-396, 130-097-628 and 551374). Finally, the cells were washed and fixed in 2% paraformaldehyde (EMS, 15710). To perform macrophage polarization, purified monocytes were plated at 0.3×10^6 per mL in RPMI 1640 medium with glutamax-I supplemented with 10% (vol/vol) fetal bovine serum plus CSF-1 for 5+2 days to differentiate into M0 macrophages. 20 ng/mL IL-4 (Miltenyi, 130-094-117) was added after 5 days of differentiation for two days to polarize into M2-macrophages. […] Fluorescence was measured with a MACSQuant® Analyzer (Miltenyi, Paris, France). […] Fluorescence was measured with a MACSQuant® Analyzer (Miltenyi, Paris, France). […]

caspase-8 = caspase-8 (Homo sapiens, UniProt Q14790); assay: Recombinant caspase-8 activity in vitro (Ac-IETD-AMC substrate); format: biochemical; set-up: using active recombinant proteins of caspase-8 and caspase-3; purchased Enzo life sciences ALX-201-062; settings: recombinant caspase-8, Ac-IETD-AMC
Source text: FIG. 4. […] (A) Measures of caspase-8 activity (IETD-AMC). IETD-CHO treatment is used as positive control in the in vitro assay. The results are expressed as A.U./min and represent the mean of 3 independent experiments realized in duplicate (B) Measures of caspase-3 activity (DEVD-AMC). DEVD-CHO is used as positive control in the in vitro assay. The results are expressed as A.U./min and represent the mean of 3 independent experiments realized in duplicate. Human CSF-1 was purchased from Miltenyi (130-096-493). […] Mouse caspase-8 was from R&D Systems (AF705). HRP-conjugated rabbit anti-goat was purchased from Dako ([…]) and HRP-conjugated goat anti-rabbit was from Cell Signaling (5127). Active recombinant caspase-8 (ALX-201-062) and -3 (ALX-201-059) were from Enzo life sciences. […] Each assay (in triplicate) was performed with 10 μg of protein prepared from control or stimulated cells. […] Enzyme activities were expressed in arbitrary units (A.U.) per min and per mg of proteins. The same protocol was used with 0.25 units of active recombinant caspase-8 (Enzo, ALX-201-062) or -3 (Enzo, ALX-201-059) in each triplicate.

Sequence of caspase-8 (Q14790 217-374 limits assumed): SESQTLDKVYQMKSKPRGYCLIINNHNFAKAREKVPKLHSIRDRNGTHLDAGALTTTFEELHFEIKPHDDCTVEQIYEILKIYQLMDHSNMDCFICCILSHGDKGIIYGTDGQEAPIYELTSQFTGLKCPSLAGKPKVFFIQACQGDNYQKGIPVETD
Sequence of caspase-8 (Q14790 385-479 limits assumed): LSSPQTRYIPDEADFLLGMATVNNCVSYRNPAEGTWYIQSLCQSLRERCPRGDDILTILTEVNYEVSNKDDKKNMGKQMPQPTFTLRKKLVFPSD

Row | SMILES | concentration range of dose-dependent inhibition of macrophagic differentiation (human primary monocytes; added at day 0 only, inhibition weak compared to Emricasan) [µM] | concentrations with significant inhibitory effect on monocyte differentiation (human primary monocytes; only when added twice (day 0 and day 1), several donors) [µM] | concentration necessary to achieve inhibition identical to Emricasan (human primary monocytes; same-experiment comparison, 2 successive treatments (days 0 and 1)) [µM] | IC50 (caspase-8) [nM] | concentration that abrogated / fully inhibited caspase-8 activity (caspase-8) [µM] | concentrations with strong inhibitory effect on macrophagic differentiation (human primary monocytes; CSF-1 2 days, Emricasan added at day 0, three different donors) [µM] | concentration range that efficiently inhibited monocyte differentiation (human primary monocytes; same-experiment comparison, added only one time, CSF-1 2 days) [µM]
1 | CC(C)[C@H](NC(=O)c1ccc2ccccc2n1)C(=O)N[C@@H](CC(=O)O)C(=O)COc1c(F)cccc1F [Q-VD-OPh] | 75 to 125 | 100 to 125 | 100 | ~1000 | 50 | – | –
2 | C[C@H](NC(=O)C(=O)Nc1ccccc1C(C)(C)C)C(=O)N[C@@H](CC(=O)O)C(=O)COc1c(F)c(F)cc(F)c1F [Emricasan, (S)-3-((S)-2-(2-((2-(tert-Butyl)phenyl)amino)-2-oxoacetamido)propanamido)-4-oxo-5-(2,3,5,6-tetrafluorophenoxy)pentanoic acid] | – | – | – | 12 | 0.2 | 1 to 2 | 1.5 to 2.5
